Sequences and labels used below:
B1: Caseinolytic peptidase P (ClpP) of S. aureus, label-free (His tag excised) (enzyme)
chain: MNLIPTVIETTNRGERAYDIYSRLLKDRIIMLGSQIDDNVANSIVSQLLFLQAQDSEKDIYLYINSPGGSVTAGFAIYDTIQHIKPDVQTICIGMAASMGSFLLAAGAKGKRFALPNAEVMIHQPLGGAQGQATEIEIAANHILKTREKLNRILSERTGQSIEKIQKDTDRDNFLTAEEAKEYGLIDEVMVPETK
notes: also called casein hydrolase P; label-free ClpP protein; source: E. coli BL21 (DE3), pET28a-clpP, purified (His-Trap); copies: 14

≈ marks a conversion by molar mass, not a printed value.
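Wherever Relative inhibition rate (%) is given: ClpP peptidase activity measured as fluorescence (ex 360 nm, em 465 nm) from cleavage of Suc-LY-AMC substrate at 100 µM, 30 min at 32°C.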

In the first test the target is T1, 6×His-ClpX protein of S. aureus (S. aureus, UniProt Q2FXQ7 1-420).
T1 construct: source: E. coli, purified
T1 sequence (Q2FXQ7 whole entry): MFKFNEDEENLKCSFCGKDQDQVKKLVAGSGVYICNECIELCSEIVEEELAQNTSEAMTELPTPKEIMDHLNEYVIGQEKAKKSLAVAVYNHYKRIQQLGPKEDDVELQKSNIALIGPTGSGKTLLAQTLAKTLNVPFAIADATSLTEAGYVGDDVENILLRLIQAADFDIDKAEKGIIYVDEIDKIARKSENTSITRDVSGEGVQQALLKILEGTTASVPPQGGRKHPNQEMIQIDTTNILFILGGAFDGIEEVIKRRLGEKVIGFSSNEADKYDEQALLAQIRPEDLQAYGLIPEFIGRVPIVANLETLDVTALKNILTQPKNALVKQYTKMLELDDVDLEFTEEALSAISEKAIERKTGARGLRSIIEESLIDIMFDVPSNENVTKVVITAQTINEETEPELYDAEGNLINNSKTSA
The test can be described thus: pull-down; 6×His-ClpX and label-free ClpP mixed with 2 mM ATPγS (with DMSO, quercetin or ADEP4), overnight at 4°C; passed through Ni-NTA, washed with binding buffer (40 mM Tris, 200 mM NaCl, pH 8.5), eluted with 400 mM imidazole; SDS-PAGE. The settings on record: both partners purified.
Regarding B1, the binding result is “binds”.

A further test concerns the target T2, ClpP (Staphylococcus aureus, UniProt Q2G036).
T2 construct: pET28a-clpP, purified from E. coli BL21(DE3)
The test can be described thus: biochemical. The conditions noted are these: read-out: Relative inhibition rate (%).
Experimental: This property was exploited to screen the available laboratory library of small molecules for ClpP inhibitors. First, 10 μM ClpP and 64 μg/mL of the small molecule compound were added to a black opaque 96-well plate containing 100 μL of ClpP buffer (100 mM HEPES,100 mM NaCl) and incubated for 1 h at room temperature. Afterward, 100 μM Suc-LeuTyr-AMC (Cat number S1153, Sigma-Aldrich, St. Louis, MO, USA) was added to 96-well plates and incubated for 30 min at 32°C. Finally, the fluorescence values were detected by Infinite M200 (360 nm excitation/465 nm emission). […] Since the fluorescent substrate Suc-LY-AMC can be used to detect the activity of ClpP protein, we screened a library of natural products available in our laboratory.
For the molecule `C=C(C)[C@H](CC=C(C)C)Cc1c(O)cc(O)c2c1O[C@H](c1ccc(O)cc1O)CC2=O` [Nor-kurarinone], the inhibition (commonly the relative decrease from the control value, in per cent) at 64 µg/mL was 83.3 ± 0.02%.
On the same count and under the same terms, to `COc1ccc([C@@H]2CC(=O)c3c(O)cc(O[C@@H]4O[C@H](CO[C@@H]5O[C@@H](C)[C@H](O)[C@@H](O)[C@H]5O)[C@@H](O)[C@H](O)[C@H]4O)cc3O2)cc1` [Didymin] belongs 31.2 ± 0.59%; to `C=CC/C(=N/OS(=O)(=O)O)S[C@@H]1O[C@H](CO)[C@@H](O)[C@H](O)[C@H]1O` [Sinigrin], 20.1 ± 4.17%; to `C[C@@H]1CC[C@H]2[C@@H](C)C(=O)O[C@@H]3O[C@@]4(C)CC[C@@H]1[C@]32OO4` [Artemisinin], 4.9 ± 4.21%.
Consider `O=c1cc(-c2ccccc2)oc2cc(O)cc(O)c12` [Chrysin], for which the inhibition at 64 µg/mL is 49 ± 3.18%.
For the molecule `C/C=C/c1cc(OC)c2c(c1)C(C)C(c1ccc(O)c(OC)c1)O2` (centres unmarked) [Dehydrodiisoeugenol], the inhibition at 64 µg/mL turned out to be 5.3 ± 0.61%.
The same measure, in the same setting: to `CC1=C[C@H](O)CC(C)(C)[C@H]1/C=C/C(C)=C/C=C/C(C)=C/C=C/C=C(C)/C=C/C=C(C)/C=C/C1=C(C)C[C@@H](O)CC1(C)C` [Lutein] belongs 1.4 ± 0.52%; to `O=C(O)[C@H]1O[C@@H](Oc2cc3oc(-c4ccccc4)cc(=O)c3c(O)c2O)[C@H](O)[C@@H](O)[C@@H]1O` [Baicalin], 27.3 ± 0.55%.
Still for that read-out and setting: to `COc1cc([C@@H]2Oc3c(O)cc([C@H]4Oc5cc(O)cc(O)c5C(=O)[C@@H]4O)cc3[C@H]2CO)ccc1O` [Silicristin] belongs 9.3 ± 0.83%; to `O=c1c(O)c(-c2ccc(O)c(O)c2)oc2cc(O)cc(O)c12` [quercetin], 74.3 ± 2.67%; to `O=c1c(O[C@@H]2O[C@@H](CO)[C@H](O)[C@H]2O)c(-c2ccc(O)c(O)c2)oc2cc(O)cc(O)c12` [Avicularin], 46 ± 1.22%.
In the case of `COc1cc2ccc(=O)oc2c(O)c1O` [Fraxetin], the inhibition at 64 µg/mL amounted to 50.3 ± 4.62%.
Still for that read-out and setting: to `O=c1c(O)c(-c2ccc(O)cc2)oc2cc(O)cc(O)c12` [Kaempferol] belongs 44 ± 2.75%; to `CC(C)=CCc1c(O)ccc(C(=O)/C=C/c2ccc(O)cc2)c1O` [isobavachalcone], 97.6 ± 0.26%; to `COc1ccc(-c2oc3c(CC=C(C)C)c(O)cc(O)c3c(=O)c2O[C@@H]2O[C@@H](C)[C@H](O)[C@@H](O)[C@H]2O)cc1` [Baohuoside I], 37.1 ± 0.59%.
On to `Nc1[nH]c(=O)nc2c1ncn2[C@@H]1O[C@H](CO)[C@@H](O)[C@H]1O` [Crotonoside], for which the inhibition at 64 µg/mL turned out to be 28.1 ± 3.17%.
Regarding `COc1ccc(-c2cc(=O)c3c(O)cc(O[C@@H]4O[C@H](CO[C@@H]5O[C@@H](C)[C@H](O)[C@@H](O)[C@H]5O)[C@@H](O)[C@H](O)[C@H]4O)cc3o2)cc1` [Buddleoside], the inhibition at 64 µg/mL was determined as 46.2 ± 1.25%.
Consider `O=C(CCc1ccc(O)cc1)c1c(O)cc(O)cc1O[C@@H]1O[C@H](CO)[C@@H](O)[C@H](O)[C@H]1O` [Phlorizin], for which the inhibition at 64 µg/mL turned out to be 5.3 ± 0.71%.
Take `COc1ccc(-c2oc3c(OC)c(O)cc(O)c3c(=O)c2O)cc1` [Prudomestin]: the inhibition at 64 µg/mL amounted to 54.2 ± 4.67%.
Take `O=c1c(-c2ccc(O)cc2)coc2cc(O[C@@H]3O[C@H](CO)[C@@H](O)[C@H](O)[C@H]3O)cc(O)c12` [Genistin]: the inhibition at 64 µg/mL was 22.1 ± 0.63%.
Take `COc1ccc(-c2oc3c(CC=C(C)C)c(O[C@@H]4O[C@H](CO)[C@@H](O)[C@H](O)[C@H]4O)cc(O)c3c(=O)c2O[C@@H]2O[C@@H](C)[C@H](O)[C@@H](O[C@@H]3O[C@H](CO)[C@@H](O)[C@H](O)[C@H]3O)[C@H]2O)cc1` [Epimedin A1]: the inhibition at 64 µg/mL was 26.7 ± 0.81%.
As for `COc1cc(O)c2c(=O)cc(-c3ccccc3)oc2c1` [Tectochrysin], the inhibition at 64 µg/mL came to 7.1 ± 0.26%.
On to `COc1ccc(-c2cc(=O)c3c(O)c(OC)c(OC)cc3o2)cc1O` [3',5-Dihydroxy-4',6,7-trimethoxyflavone], for which the inhibition at 64 µg/mL was 55.8 ± 2.5%.
Regarding `COc1ccc(-c2oc3cc(OC)c(OC)c(O)c3c(=O)c2OC)cc1O` [Casticin], the inhibition at 64 µg/mL turned out to be 56.8 ± 1.22%.
Same read-out and setting: to `O=C1C([C@@H]2O[C@H](CO)[C@@H](O)[C@H](O)[C@H]2O)=C(O)/C(=C(O)/C=C/c2ccc(O)cc2)C(=O)C1(O)[C@@H]1O[C@H](CO)[C@@H](O)[C@H](O)[C@H]1O` (some centres unmarked) [Hydroxysafflor yellow A] belongs 52.4 ± 4.23%; to `COc1ccc(-c2coc3cc(O[C@@H]4O[C@H](CO)[C@@H](O)[C@H](O)[C@H]4O)ccc3c2=O)cc1O` [Calycosin-7-glucoside], 4.2 ± 0.84%.
The same measure, in the same setting: to `COc1ccc(-c2cc(=O)c3c(O)cc(OC)cc3o2)cc1` [Apigenin 7,4'-dimethyl ether] belongs 18.4 ± 1.24%; to `Cc1c(O)c(C)c2c(c1O)C(=O)C[C@@H](c1ccc(O)cc1)O2` [Farrerol], 33.5 ± 0.73%; to `O=c1ccc2cc(O)c(O)cc2o1` [6,7-Dihydroxycoumarin], 19.6 ± 3.54%.
Same read-out and setting: to `COc1cc(-c2coc3cc(O[C@@H]4O[C@H](CO)[C@@H](O)[C@H](O)[C@H]4O)c(OC)c(O)c3c2=O)cc(O)c1OC` [Iridin] belongs 14.2 ± 1.39%.
For `COC(=O)[C@@]12OC[C@]34[C@H]([C@@H](O)[C@@H]1O)[C@@]1(C)CC(=O)C(O)=C(C)[C@@H]1C[C@H]3OC(=O)[C@H](OC(C)=O)[C@@H]24` [Bruceine B], the inhibition at 64 µg/mL turned out to be 1.6 ± 2.71%.
Same read-out and setting: to `COc1ccc(C(=O)O)cc1O` [Isovanillic acid] belongs 13.7 ± 2.43%; to `O=C1c2ccccc2C(=O)c2c1ccc(O)c2O` [Alizarin], 56.6 ± 5.28%.
`COc1ccc(-c2cc(=O)c3c(O)cc(O[C@@H]4O[C@H](CO[C@@H]5O[C@@H](C)[C@H](O)[C@@H](O)[C@H]5O)[C@@H](O)[C@H](O)[C@H]4O)cc3o2)cc1O` [Diosmin]: the inhibition at 64 µg/mL is 31.7 ± 0.92%.
As to `COc1ccc(/C=C/C(=O)c2c(O)cc(OC)cc2OC)cc1` [Flavokawain A], the inhibition at 64 µg/mL was found to be 2.6 ± 1.17%.
With `COc1ccc(-c2coc3cc(O)cc(O)c3c2=O)cc1` [Biochanin A], the inhibition at 64 µg/mL came out at 28.2 ± 1.38%.
On the same count and under the same terms, to `COc1cc2c(=O)c(-c3ccc(O)cc3)coc2cc1O[C@@H]1O[C@H](CO)[C@@H](O)[C@H](O)[C@H]1O` [Glycitin] belongs 18.5 ± 1.26%; to `O=C1C[C@@H](c2ccc(O[C@@H]3O[C@H](CO)[C@@H](O)[C@H](O)[C@H]3O)cc2)Oc2cc(O)ccc21` [Liquiritin], 3.2 ± 0.97%.
For `COc1cc2c(cc1O)C[C@H]1c3cc(O)c(OC)cc3CC[N+]1(C)C2` (some centres unmarked) [Phellodendrine chloride], the inhibition at 64 µg/mL came out at 10.2 ± 2.67%.
Turning to `C[C@@H]1C(=O)O[C@H](C)[C@H]1C[C@@H](O)[C@](C)(O)[C@H]1CC[C@@]2(O)C3=CC(=O)[C@@H]4C[C@@H](O)[C@@H](O)C[C@]4(C)[C@H]3CC[C@]12C` [Cyasterone], the inhibition at 64 µg/mL stood at 25.6 ± 2.65%.
Take `CC(C)(C)[C@]1(O)C[C@@H]2OC(=O)C[C@@]23C(=O)O[C@@H]2OC(=O)[C@H](O)[C@]213` [Bilobalide]: the inhibition at 64 µg/mL was determined as 17.4 ± 1.76%.

Another test concerns T3, S. aureus USA300 (MRSA).
T3 construct: USA300
Briefly: microbe, parasite or virus in culture. More on the design: MIC, growth inhibition of MRSA USA300. The settings on record: Staphylococcus aureus, read-out: MIC (μg/mL).
In the case of `C=C(C)[C@H](CC=C(C)C)Cc1c(O)cc(O)c2c1O[C@H](c1ccc(O)cc1O)CC2=O` [Nor-kurarinone], the MIC turned out to be 2 µg/mL (≈ 4.71 µM).
As for `O=c1c(O)c(-c2ccc(O)c(O)c2)oc2cc(O)cc(O)c12` [quercetin], the MIC came to 128 µg/mL (≈ 424 µM).
Regarding `CC(C)=CCc1c(O)ccc(C(=O)/C=C/c2ccc(O)cc2)c1O` [isobavachalcone], the MIC is 8 µg/mL (≈ 24.7 µM).

A further test deals with T2, ClpP. The test can be described thus: LSPR (OpenSPR) with immobilized ClpP; supported by TSA, CETSA in lysate, and Suc-LY-AMC inhibition (IC50 […]).
Conditions: not given
It is filed as binding.
Turning to `O=c1c(O)c(-c2ccc(O)c(O)c2)oc2cc(O)cc(O)c12` [quercetin], binding was put at a Kd of 197 nM.

The next test concerns the target T2, ClpP. Briefly: ClpP peptidase assay with fluorescent substrate Suc-LY-AMC (positive-control inhibitor). The format is biochemical.
Conditions: not given
As for `O=c1c(O)c(-c2cc(O)c(O)c(O)c2)oc2cc(O)cc(O)c12` [myricetin], the “ClpP peptidase assay with fluorescent substrate Suc-LY-AMC (positive-control inh)” value is “the inhibitory ability of quercetin and the positive-control myricetin on ClpP activity were the closest”.

These data come from article PMC9045277, “Quercetin Reduces the Virulence of S. aureus by Targeting ClpP to Protect Mice from MRSA-Induced Lethal Pneumonia” (Microbiology Spectrum, 2022).
